Measured values reported in patent US5464739A, “Composition method for determining the presence of leukocyte cells, esterase or protease in a test sample” (Bayer Corporation, priority 1994, dated 1995).

Key:
[1] = target: T1, human leukocyte elastase (HLE) (Homo sapiens, UniProt P08246); test: Dry phase test strip assay of chromogenic substrates for HLE (reflectance at 557 nm, K/S); type: biochemical; conditions: for K/S: response at 120 seconds; for Change in K/S: 120 seconds; for Response to HLE / hydrolysis by HLE, in words: test strip, NDNSA
T1 sequence (P08246 30-247): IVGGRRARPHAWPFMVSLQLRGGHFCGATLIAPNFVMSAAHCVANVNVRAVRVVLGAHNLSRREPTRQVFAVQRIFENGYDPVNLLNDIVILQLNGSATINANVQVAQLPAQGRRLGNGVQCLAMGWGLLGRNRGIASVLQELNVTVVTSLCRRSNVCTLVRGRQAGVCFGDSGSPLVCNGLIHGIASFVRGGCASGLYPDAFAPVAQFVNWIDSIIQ
Method: In accordance with the method of the present invention, a test device was prepared which was sensitive to the presence of leukocyte esterase. An aqueous solution including 0.8M borate-sodium hydroxide buffer (pH 8.8) and 1% by weight of polyvinylpyrrolidone (PVP K-60 available from ISP Corp., Wayne, N.J.) first was prepared. A 4 inch wide strip of WHATMAN 3MM filter paper, available commercially from Whatman, Ltd., Maidenhead, Kent, U.K., then was impregnated with the aqueous solution. The impregnated filter paper strip next was dried in an Air Foil paper dryer, available from Thermoelectron, Kaukauna, Wis., at 79° C. to 121° C. for about 5 to 6 minutes.
The dried, impregnated filter paper strip then was impregnated a second time by immersion into an acetone solution containing 1.1 mM of a lactate ester of structural formula […], 0.7 mM 4-diazo-3-hydroxy-7-nitro-1-naphthylsulfonate (i.e., the compound of structural formula (XX), also named 6-nitro-1,2-naphthoquinone diazide), 1.5% (v/v) 1-decanol and 3% (v/v) dimethylsulfoxide. After the second impregnation, the filter paper strip was dried at 60° C. for about 5 to 6 minutes to provide an off-white filter paper strip. The dried, twice-impregnated filter paper pad is secured to an opaque or transparent hydrophobic plastic handle with double-sided adhesive tape. The dried and twice-impregnated filter paper strip was next cut to an appropriate size for a test strip assay, such as a pad having dimensions of about 0.2 in (inch) (0.5 cm) by about 0.2 in (0.5 cm).
Individual test strips each incorporating one chromogenic lactate ester having a structural formula (X) through (XIV) and a diazonium salt coupling agent were quickly immersed into standardized solutions containing 0, 19 or 48 ng/mL HLE, then removed. Approximately two minutes after contacting a standardized HLE solution, the reflectance of the test pad of the test strip was measured at 557 nm (nanometers) on a CLINITEK® 10 clinical reflectance meter, available from Miles, Inc., Elkhart, Ind.
The reflectance, R, as taken from the reflectance scale of zero to one, was incorporated into the Kubelka-Munk function:
wherein K is the absorption coefficient, S is the scattering coefficient and R is reflectance. The reflectance values determined at 557 nm were used to calculate the K/S values. The K/S values are proportional to test strip color, therefore the greater the K/S value, the greater the degree and intensity of the color transition of the test strip and the greater the concentration of HLE in the test strip.
Dry phase test strips incorporating the lactate ester of structural formula (X), and prepared as discussed above, were compared to dry phase test strips incorporating the corresponding alanine derivative (I) for an ability to detect HLE in urine. A comparison also was made between the diazonium salt coupling agents DNSA (XX) and NDNSA (XXI). The test strips were otherwise identical. The results tabulated below were obtained after quickly immersing the individual reagent strips into standardized HLE solutions. Two minutes after immersion, the test strips were examined for a chromogenic response as described above.

[2] = target: T1, human leukocyte elastase (HLE); test: as above; type: biochemical; conditions: for K/S: response at 120 seconds; for Change in K/S: between 0 and 19 ng/mL HLE; for Change in K/S / Response between 200 and 500 ng/mL HLE, in words: 120 seconds; for ΔK/S (557 mm) at 120 seconds: NDNSA (XXI); for Response between 200 and 500 ng/mL HLE, in words: test strip, NDNSA
[3] = HLE 0 ng/mL, diazonium salt NDNSA, 557 nm
[4] = HLE 19 ng/mL, diazonium salt NDNSA, 557 nm
[5] = HLE 48 ng/mL, diazonium salt NDNSA, 557 nm
[6] = between 0 and 19 ng/mL HLE, diazonium salt NDNSA
[7] = between 0 and 48 ng/mL HLE, diazonium salt NDNSA
[8] = Example 10, HLE 19 ng/mL, diazonium salt not given (as in Example 6)
[9] = Example 10, diazonium salt not stated
[10] = Example 10, HLE 0 ng/mL, diazonium salt not given (as in Example 6)
[11] = change between 0 and 5 ng/mL HLE
[12] = change between 0 and 10 ng/mL HLE
[13] = change between 0 and 20 ng/mL HLE
[14] = change between 0 and 100 ng/mL HLE
[15] = change between 0 and 200 ng/mL HLE
[16] = change between 0 and 500 ng/mL HLE

SMILES | K/S [1, 3] | K/S [1, 4] | K/S [1, 5] | Change in K/S [1, 6] | Change in K/S [1, 7] | also measured
COC(=O)CCS(=O)(=O)N[C@@H](C)C(=O)Oc1c[nH]c(-c2ccccc2)c1 | 0.074 | 0.435 | 0.976 | 0.361 | 0.902 | –
C[C@H](NS(=O)(=O)c1cccs1)C(=O)Oc1c[nH]c(-c2ccccc2)c1 [2-Thiophene-SO2 --R--OPP, R = Alanine] | – | – | – | – | – | K/S [2, 8]: 0.224; Change in K/S [2, 9]: 0.174; K/S [1, 10]: 0.050
C[C@H](OS(=O)(=O)c1cccs1)C(=O)Oc1c[nH]c(-c2ccccc2)c1 [2-Thiophene-SO2-(L)-Lac-OPP] | – | – | – | – | – | K/S [2, 8]: 0.385; Change in K/S [2, 9]: 0.332; K/S [1, 10]: 0.03
COC(=O)CCS(=O)(=O)O[C@@H](C)C(=O)Oc1c[nH]c(-c2ccccc2)c1 [MeOSucc--SO2 -(L)-Lac--OPP] | 0.177 | 0.514 | 0.916 | 0.337 | 0.739 | Response to HLE / hydrolysis by HLE, in words [1]: sufficient to assay for HLE
C[C@H](NC(=O)c1ccccc1)C(=O)Oc1c[nH]c(-c2ccccc2)c1 [Ph--CO--R--OPP, R = Alanine] | 0.038 | 0.039 | – | 0.001 | – | –
C[C@H](OC(=O)c1ccccc1)C(=O)Oc1c[nH]c(-c2ccccc2)c1 [Ph--CO--R--OPP, R = Lactate (XI), PhCO-(L)-Lac--OPP] | 0.041 | 0.106 | – | 0.065 | – | –
Cc1ccc(S(=O)(=O)O[C@@H](C)C(=O)Oc2c[nH]c(-c3ccccc3)c2)cc1 [Tosyl-(L)--Lac--OPP, 3-(O-tosyl-(L)-lactoyl)-5-phenylpyrrole] | 0.046 | 0.348 | – | 0.302 | – | Response to HLE / hydrolysis by HLE, in words [1]: readily hydrolyzed by the enzyme HLE
Cc1ccc(S(=O)(=O)N[C@@H](C)C(=O)Oc2c[nH]c(-c3ccccc3)c2)cc1 [Tosyl--Ala--OPP, 3-hydroxy-5-phenyl-pyrrole-N-tosyl-L-alanine ester] | 0.044 | 0.308 | – | 0.264 | – | K/S ([2]; HLE 0 ng/mL, diazonium salt DNSA, 557 nm): 0.021; K/S ([2]; HLE 19 ng/mL, diazonium salt DNSA, 557 nm): 0.146; Change in K/S ([2]; diazonium salt DNSA): 0.125
CCCS(=O)(=O)N[C@@H](C)C(=O)Oc1c[nH]c(-c2ccccc2)c1 [n-Pr--SO2 --Ala--OPP] | 0.050 | 0.363 | 0.881 | 0.313 | 0.831 | ΔK/S (557 mm) at 120 seconds [2, 11]: 0.065; ΔK/S (557 mm) at 120 seconds [2, 12]: 0.165; ΔK/S (557 mm) at 120 seconds [2, 13]: 0.353; ΔK/S (557 mm) at 120 seconds [2, 14]: 1.474; ΔK/S (557 mm) at 120 seconds [2, 15]: 1.797; ΔK/S (557 mm) at 120 seconds [2, 16]: 1.628; Response between 200 and 500 ng/mL HLE, in words [2]: no difference in response
CCCS(=O)(=O)O[C@@H](C)C(=O)Oc1c[nH]c(-c2ccccc2)c1 [n-Pr--SO2 --Lac--OPP, nPr--SO2 -(L)-Lac--OPP] | 0.100 | 0.498 | 1.049 | 0.398 | 0.949 | ΔK/S (557 mm) at 120 seconds [2, 11]: 0.108; ΔK/S (557 mm) at 120 seconds [2, 12]: 0.257; ΔK/S (557 mm) at 120 seconds [2, 13]: 0.533; ΔK/S (557 mm) at 120 seconds [2, 14]: 1.462; ΔK/S (557 mm) at 120 seconds [2, 15]: 1.693; ΔK/S (557 mm) at 120 seconds [2, 16]: 1.915; Response between 200 and 500 ng/mL HLE, in words [2]: continues to increase
